Test results as given in paper PMC3572206 (Biomaterials, 2012).
pIC50: −log10 of the molar value.

Experiments:
[1] = system: MDA-1986; experiment: Cytotoxicity; format: cell-based, human; settings: read-out: IC50: MDA-1986; 72 hrs post-addition
[2] = system: MDA-MB-468; experiment: Cytotoxicity; format: cell-based, human; settings: read-out: IC50: MDA-MB-468; 72 hrs post-addition
[3] = system: MDA-1986 human head and neck squamous cell carcinoma xenografts
[4] = system: MDA-1986 cells; experiment: Nitric oxide release in vitro; format: cell-based, human
[5] = system: MDA-MB-231; experiment: Cytotoxicity; format: cell-based, human; settings: read-out: IC50: MDA-MB-231; 72 hrs post-addition

| Molecule | pIC50 [1] | pIC50 [2] | progressive disease (PD) rate ([3]; 10 mg/kg, Sugar-NO1 s.c., JS-K i.v.) [%] | animals euthanized (tumor size exceeding 1000 mm^3 or necrosis of the injection site on the tail) ([3]; within 7 weeks) [%] | increase in release half-life compared to JS-K [4] [fold] | pIC50 [5] |
| --- | --- | --- | --- | --- | --- | --- |
| O^2-(2,4-Dinitrophenyl) 1-{[4-(2-hydroxy)ethyl]-3-methylpiperazin-1-yl}diazen-1-ium-1,2-diolate [NO2] | 4.24 | 4.57 |  |  |  |  |
| CCOC(=O)N1CCN(/[N+]([O-])=N/Oc2ccc([N+](=O)[O-])cc2[N+](=O)[O-])CC1 [JS-K, O^2-(2,4-Dinitrophenyl) 1-[(4-ethoxycarbonyl)piperazin-1-yl]diazen-1-ium-1,2-diolate, reference compound] | 4.80 | 4.38 | 100 | 100 |  |  |
| O=[N+]([O-])c1ccc(ON=[N+]([O-])N2CCN(CCOCCO)CC2)c([N+](=O)[O-])c1 [NO1, O^2-(2,4-Dinitrophenyl) 1-{[4-(2-(2-hydroxyethoxy))ethyl]piperazin-1-yl} diazen-1-ium-1,2-diolate] | 4.49 | 4.59 |  |  | 1 | 4.49 |
